Data: PubChem BioAssay (NCI)
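GI50 is the concentration that inhibits growth by half. TGI: total growth inhibition.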

What was measured:
Experiment in all cases: DTP human tumour cell line panel, 384-well format
SF-539 CNS = system: SF-539 CNS
LOX IMVI melanoma = system: LOX IMVI melanoma
CAKI-1 renal = system: CAKI-1 renal
UACC-257 melanoma = system: UACC-257 melanoma
SK-MEL-2 melanoma = system: SK-MEL-2 melanoma
PC-3 prostate = system: PC-3 prostate
MDA-MB-435 melanoma = system: MDA-MB-435 melanoma
M14 melanoma = system: M14 melanoma
SR leukemia = system: SR leukemia
MDA-MB-231 breast = system: MDA-MB-231 breast
TK-10 renal = system: TK-10 renal
MCF7 breast = system: MCF7 breast
SNB-19 CNS = system: SNB-19 CNS

**Q.** With Nc1ncn(C2OC(CO)C(O)C2O)c(=O)n1 (stereo unspecified) as the compound, how does the GI50 (SF-539 CNS) read?
**A.** Its GI50 is 2070 nM.

**Q.** What about the TGI (SF-539 CNS) of the same compound?
**A.** The TGI was 6.09 µM.

**Q.** And the GI50 (LOX IMVI melanoma)?
**A.** Its GI50 is 531 nM.

**Q.** And the TGI (LOX IMVI melanoma)?
**A.** The TGI was 1850 nM.

**Q.** And the GI50 (CAKI-1 renal)?
**A.** Its GI50 is 466 nM.

**Q.** And the TGI (CAKI-1 renal)?
**A.** Its TGI is 4.35 µM.

**Q.** What about the GI50 (UACC-257 melanoma) of the same compound?
**A.** Its GI50 is 6.88 µM.

**Q.** What about the TGI (UACC-257 melanoma) of the same compound?
**A.** The TGI was 33.3 µM.

**Q.** What about the GI50 (SK-MEL-2 melanoma) of the same compound?
**A.** The GI50 was 911 nM.

**Q.** What about the TGI (SK-MEL-2 melanoma) of the same compound?
**A.** The TGI was 2850 nM.

**Q.** What about the GI50 (PC-3 prostate) of the same compound?
**A.** Its GI50 is 4.16 µM.

**Q.** And the TGI (PC-3 prostate)?
**A.** The TGI was 42.1 µM.

**Q.** What about the GI50 (MDA-MB-435 melanoma) of the same compound?
**A.** Its GI50 is 1710 nM.

**Q.** What about the TGI (MDA-MB-435 melanoma) of the same compound?
**A.** The TGI was 8.65 µM.

**Q.** And the GI50 (M14 melanoma)?
**A.** The GI50 was 1450 nM.

**Q.** And the TGI (M14 melanoma)?
**A.** Its TGI is 9.78 µM.

**Q.** And the GI50 (SR leukemia)?
**A.** Its GI50 is 165 nM.

**Q.** What about the TGI (SR leukemia) of the same compound?
**A.** The TGI was 423 nM.

**Q.** And the GI50 (MDA-MB-231 breast)?
**A.** The GI50 was 1550 nM.

**Q.** What about the TGI (MDA-MB-231 breast) of the same compound?
**A.** Its TGI is 17.4 µM.

**Q.** And the GI50 (TK-10 renal)?
**A.** Its GI50 is 2300 nM.

**Q.** And the TGI (TK-10 renal)?
**A.** Its TGI is 30.5 µM.

**Q.** And the GI50 (MCF7 breast)?
**A.** Its GI50 is 1560 nM.

**Q.** What about the TGI (MCF7 breast) of the same compound?
**A.** Its TGI is > 29.8 µM.

**Q.** What about the GI50 (SNB-19 CNS) of the same compound?
**A.** The GI50 was 4.47 µM.

**Q.** What about the TGI (SNB-19 CNS) of the same compound?
**A.** The TGI was > 42.2 µM.
